From article PMC3871589, “Evaluation of STAT3 Signaling in ALDH+ and ALDH+/CD44+/CD24− Subpopulations of Breast Cancer Cells” (PLoS ONE, 2013)

Experiments:
[1] = tested on: ALDH1; assay: ALDH1 protein expression in ALDH+ cells; assay type: cell-based, human
Description: (§1) After sorting by flow cytometry, ALDH^+ and ALDH^+/CD44^+/CD24^− stem-like cells were cultured in serum-free stem cell medium in ultra-low attachment six-well plates (Corning) to maintain cancer stem cell characteristics. ALDH^−, ALDH^−/CD44^+/CD24^+cells and un-separated cells were cultured in regular medium and replaced with identical stem cell medium for three days before being harvested. To assess the effects of STAT3 inhibitors, ALDH^+ and ALDH^+/CD44^+/CD24^− subpopulations of breast cancer cells were treated with LLL12 (5 µmol/L) of or static (10 µmol/L) for 24 hours. STAT3, or control GFP shRNA lentivirus (CTL ShRNA) was introduced into ALDH^+ breast cancer stem-like cells for 48 hours, then followed by selection with puromycin (0.2 µg/ml) for 72 hours. Antibodies (Cell Signaling Tech.) against phospho-specific STAT3 (Tyrosine 705) (P-STAT3, Y705), ERK1/2 (Threonine 202/Tyrosine 204), cleaved Poly (ADP-ribose) polymerase (PARP), ALDH1, cleaved caspase-3, and GAPDH were used for western blots.

[2] = molecular target: Met (Homo sapiens, UniProt P08581); assay: Kinase profiler assay, Met; assay type: biochemical; conditions: bound stated jointly for the other protein kinases; Table S3
Description: (§2) The effects of LLL12 on twenty six purified human protein kinases were performed at the Millipore UK Limited (Dundee, UK) and Reaction Biology Corp. (Malvern, PA) using the Kinase profiler assay. Assays contained a peptide substrate, purified recombinant human protein kinases to be tested, and gamma-labeled ATP, magnesiumion. Radioactive phosphorylated product was measured and quantitated via a scintillation counter.

[3] = tested on: STAT3 target genes Cyclin D1, survivin, Bcl-2 and Twist1; assay: Expression of STAT3 target genes in un-separated breast cancer cells; assay type: cell-based, human; conditions: un-separated MDA-MB-231, SK-BR-3, SUM159 cells; 10 µM, 24 hours
Description: (§3) LLL12 was synthesized in Dr. Pui-Kai Li’s laboratory (College of Pharmacy, The Ohio State University). Un-separated cells were treated with 10 µM of LLL12 or DMSO for 24 hours, and the phosphorylation of STAT3 (Y705), and ERK 1/2 (T202/Y204), and expression of STAT3 downstream genes, cleaved caspase-3, and PARP were detected by Western blots. (JPG) Click here for additional data file.

[4] = tested on: STAT3 phosphorylation (Y705); assay: Western blot of STAT3 phosphorylation in un-separated breast cancer cells; assay type: cell-based, human; conditions: un-separated MDA-MB-231, SK-BR-3, SUM159 cells, 10 µM, 24 hours
Description: as §1, §3

[5] = 5 mg/kg IP daily; data not shown
[6] = tested on: ALDH+ subpopulations of SK-BR-3, MDA-MB-231, and SUM159; assay: Tumorsphere formation, ALDH+ subpopulations; assay type: cell-based, human; conditions: 2.5–10 µmol/L, 10 to 15 days
Description: (§4) ALDH^+ and ALDH^+/CD44^+/CD24^− cells were plated as single cells in ultra-low attachment six-well plates at a density of 250, 500, 1000 or 50,000 viable cells/well as previously described. On the second day after seeding, the ALDH^+ cancer cells were treated with 2.5–10 µmol/L of LLL12 or Stattic. For tumorsphere forming capacity assay, ALDH^+ or ALDH^− cells were plated as single cells in ultra-low attachment six-well plates at a density of 250, 500 or 1000 viable cells/well. Tumorsphere growth was observed under a microscope 10 to 15 days later.

[7] = molecular target: PYK2 (Homo sapiens, UniProt Q14289); assay: Kinase profiler assay, PYK2; assay type: biochemical; conditions: 10 concentrations, 100 µM highest; Table S3
Description: as §2

[8] = tested on: ALDH+/CD44+/CD24− subpopulation of MDA-MB-231 and SUM159; assay: Caspase-3 cleavage in ALDH+/CD44+/CD24− cells; assay type: cell-based, human; conditions: 0.5–5 µM
Description: (§5) The ALDEFLUOR kit (StemCell Technologies) was used to isolate the population with high ALDH enzymatic activity as previously described. Briefly, cells were trypsinized to single cells using 0.05% trypsin and subsequently suspended in ALDEFLUOR assay buffer containing ALDH substrate (BAAA, 1 µmol/l per 1×10^6 cells) and then incubated for 40 minutes at 37°C. For each sample, an aliquot of cells was stained under identical conditions with 15 mmol/L diethylaminobenzaldehyde (DEAB), a specific ALDH inhibitor, as an ALDH^− control. Anti-human PE-CD24 and PE-Cy5-CD44 antibody (BioLegend) were used for CD44/CD24 identification and to separate ALDH^+/CD44^+/CD24^− and ALDH^−/CD44^+/CD24^+ cells when combined with ALDH staining. Analysis was performed using a FACStarPLUS (Becton Dickinion) flow cytometer. To assess the effect of STAT3 inhibitors on the subpopulation of ALDH^+ cells, un-separated breast cancer cells were treated with 5 µmol/L of LLL12 or 10 µmol/L Stattic for 24 hours prior to performing the ALDEFLUOR assay.
(§6) After sorting by flow cytometry, ALDH^+ and ALDH^+/CD44^+/CD24^− stem-like cells were cultured in serum-free stem cell medium in ultra-low attachment six-well plates (Corning) to maintain cancer stem cell characteristics. […]

[9] = tested on: ALDH+/CD44+/CD24− subpopulation of MDA-MB-231 and SUM159 breast cancer cells; assay: Tumorsphere formation of ALDH+/CD44+/CD24− subpopulation; assay type: cell-based, human; conditions: Figure 5E
Description: as §4

[10] = tested on: STAT1; conditions: cited from earlier work
[11] = tested on: ALDH− cells; assay: MTT cell viability assay, ALDH− subpopulation; assay type: cell-based, human; conditions: Figure S4
Description: The breast cancer cells were seeded in 96-well plates (3,000 cells/well) in triplicates in a serum-free mammary epithelial basal medium. The following day, cancer cells were treated with 1 to 10 µmol/L of LLL12 or Stattic for 72 hours, STAT3 ShRNA or control GFP shRNA lentivirus (CTL ShRNA) for 48 hours. MTT (Thiazolyl Blue Tetrazolium Bromide, Sigma-Aldrich) assay was used to determine the cell viability.

[12] = molecular target: EGFR (Homo sapiens, UniProt P00533); assay: Kinase profiler assay, EGFR; assay type: biochemical; conditions: bound stated jointly for the other protein kinases; Table S3
Description: as §2

[13] = molecular target: c-SRC (Homo sapiens, UniProt P12931); assay: Kinase profiler assay, c-SRC; assay type: biochemical; conditions: 10 concentrations, 100 µM highest; Table S3
Description: as §2

[14] = molecular target: mTOR (Homo sapiens, UniProt P42345); assay: Kinase profiler assay, mTOR; assay type: biochemical; conditions: bound stated jointly for the other protein kinases; Table S3
Description: as §2

[15] = tested on: MDA-MB-231, SK-BR-3, and SUM159 breast cancer cell lines; assay: Apoptosis (cleaved PARP and Caspase-3) in un-separated breast cancer cells; assay type: cell-based, human; conditions: un-separated MDA-MB-231, SK-BR-3, SUM159 cells; 10 µM, 24 hours
Description: as §1, §3

[16] = molecular target: Fes (Homo sapiens, UniProt P07332); assay: Kinase profiler assay, Fes; assay type: biochemical; conditions: 10 concentrations, 100 µM highest; Table S3
Description: as §2

[17] = tested on: STAT3 phosphorylation; assay: Western blot of STAT3 phosphorylation in ALDH+/CD44+/CD24− cells; assay type: cell-based, human; conditions: ALDH+/CD44+/CD24− subpopulation of MDA-MB-231 and SUM159; 0.5–5 µM
Description: as §5, §6

EGFR, sequence (P00533 25-1210): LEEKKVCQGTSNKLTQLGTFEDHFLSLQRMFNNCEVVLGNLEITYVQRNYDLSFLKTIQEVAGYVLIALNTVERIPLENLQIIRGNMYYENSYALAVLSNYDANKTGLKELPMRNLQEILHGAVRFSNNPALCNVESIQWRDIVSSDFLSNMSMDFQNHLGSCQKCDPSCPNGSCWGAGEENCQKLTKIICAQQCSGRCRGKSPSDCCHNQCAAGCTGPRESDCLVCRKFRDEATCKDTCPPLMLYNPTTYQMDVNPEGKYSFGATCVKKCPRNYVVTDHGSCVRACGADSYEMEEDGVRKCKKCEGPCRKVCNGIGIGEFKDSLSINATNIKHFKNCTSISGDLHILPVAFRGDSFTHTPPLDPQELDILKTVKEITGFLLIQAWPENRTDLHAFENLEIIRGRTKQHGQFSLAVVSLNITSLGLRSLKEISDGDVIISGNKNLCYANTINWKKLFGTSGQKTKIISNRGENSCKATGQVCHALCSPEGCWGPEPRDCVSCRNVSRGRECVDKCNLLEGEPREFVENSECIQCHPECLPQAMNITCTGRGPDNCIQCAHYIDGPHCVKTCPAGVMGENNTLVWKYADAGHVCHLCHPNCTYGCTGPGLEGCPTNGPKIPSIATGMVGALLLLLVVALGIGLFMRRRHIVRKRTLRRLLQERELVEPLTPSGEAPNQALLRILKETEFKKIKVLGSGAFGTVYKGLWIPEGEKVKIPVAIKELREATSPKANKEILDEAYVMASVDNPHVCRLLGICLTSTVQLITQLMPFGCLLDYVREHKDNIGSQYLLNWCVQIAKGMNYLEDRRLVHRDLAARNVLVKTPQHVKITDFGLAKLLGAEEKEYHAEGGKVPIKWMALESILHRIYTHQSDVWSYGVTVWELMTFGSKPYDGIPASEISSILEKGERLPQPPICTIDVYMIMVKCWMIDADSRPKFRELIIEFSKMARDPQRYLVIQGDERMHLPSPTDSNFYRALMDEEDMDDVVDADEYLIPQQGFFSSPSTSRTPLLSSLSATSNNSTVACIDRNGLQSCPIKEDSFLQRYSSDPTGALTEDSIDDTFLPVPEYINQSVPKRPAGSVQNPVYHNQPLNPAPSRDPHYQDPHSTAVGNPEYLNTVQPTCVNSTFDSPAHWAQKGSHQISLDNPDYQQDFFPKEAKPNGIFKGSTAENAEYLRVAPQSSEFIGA
Met, sequence (P08581 25-1390): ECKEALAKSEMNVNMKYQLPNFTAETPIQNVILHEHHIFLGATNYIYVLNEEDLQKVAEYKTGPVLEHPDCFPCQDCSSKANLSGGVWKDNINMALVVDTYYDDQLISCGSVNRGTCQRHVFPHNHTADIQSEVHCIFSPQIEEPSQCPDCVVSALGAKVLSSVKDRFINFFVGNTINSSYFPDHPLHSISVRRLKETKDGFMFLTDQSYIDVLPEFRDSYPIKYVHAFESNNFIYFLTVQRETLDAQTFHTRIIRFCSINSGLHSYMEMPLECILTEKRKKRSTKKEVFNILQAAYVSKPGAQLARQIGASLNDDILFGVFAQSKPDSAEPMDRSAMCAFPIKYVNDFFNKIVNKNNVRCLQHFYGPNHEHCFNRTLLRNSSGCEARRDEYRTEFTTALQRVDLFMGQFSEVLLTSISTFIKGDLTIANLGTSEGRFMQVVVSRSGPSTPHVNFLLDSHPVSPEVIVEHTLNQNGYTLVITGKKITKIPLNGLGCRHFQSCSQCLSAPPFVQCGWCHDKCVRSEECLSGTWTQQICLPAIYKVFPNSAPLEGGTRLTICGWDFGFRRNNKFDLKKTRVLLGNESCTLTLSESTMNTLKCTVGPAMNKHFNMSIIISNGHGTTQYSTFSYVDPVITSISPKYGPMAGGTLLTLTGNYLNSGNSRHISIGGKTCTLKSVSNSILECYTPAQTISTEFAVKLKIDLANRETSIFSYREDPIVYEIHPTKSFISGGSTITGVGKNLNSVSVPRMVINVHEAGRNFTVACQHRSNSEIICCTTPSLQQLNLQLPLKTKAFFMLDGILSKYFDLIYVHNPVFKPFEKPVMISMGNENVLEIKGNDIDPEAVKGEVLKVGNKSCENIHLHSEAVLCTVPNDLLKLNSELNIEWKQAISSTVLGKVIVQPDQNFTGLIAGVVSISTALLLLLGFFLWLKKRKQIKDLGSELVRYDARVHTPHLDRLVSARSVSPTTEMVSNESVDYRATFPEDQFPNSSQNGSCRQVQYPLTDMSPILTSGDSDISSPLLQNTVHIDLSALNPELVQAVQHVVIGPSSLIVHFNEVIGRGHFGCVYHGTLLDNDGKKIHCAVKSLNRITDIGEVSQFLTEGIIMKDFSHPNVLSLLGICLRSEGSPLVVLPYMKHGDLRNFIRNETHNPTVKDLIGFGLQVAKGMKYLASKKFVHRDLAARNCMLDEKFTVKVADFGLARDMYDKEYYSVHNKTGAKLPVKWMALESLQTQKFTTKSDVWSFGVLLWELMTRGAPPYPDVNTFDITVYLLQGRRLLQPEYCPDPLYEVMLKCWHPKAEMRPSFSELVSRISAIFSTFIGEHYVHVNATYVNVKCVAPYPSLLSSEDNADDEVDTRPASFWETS
Fes, sequence (P07332 whole entry): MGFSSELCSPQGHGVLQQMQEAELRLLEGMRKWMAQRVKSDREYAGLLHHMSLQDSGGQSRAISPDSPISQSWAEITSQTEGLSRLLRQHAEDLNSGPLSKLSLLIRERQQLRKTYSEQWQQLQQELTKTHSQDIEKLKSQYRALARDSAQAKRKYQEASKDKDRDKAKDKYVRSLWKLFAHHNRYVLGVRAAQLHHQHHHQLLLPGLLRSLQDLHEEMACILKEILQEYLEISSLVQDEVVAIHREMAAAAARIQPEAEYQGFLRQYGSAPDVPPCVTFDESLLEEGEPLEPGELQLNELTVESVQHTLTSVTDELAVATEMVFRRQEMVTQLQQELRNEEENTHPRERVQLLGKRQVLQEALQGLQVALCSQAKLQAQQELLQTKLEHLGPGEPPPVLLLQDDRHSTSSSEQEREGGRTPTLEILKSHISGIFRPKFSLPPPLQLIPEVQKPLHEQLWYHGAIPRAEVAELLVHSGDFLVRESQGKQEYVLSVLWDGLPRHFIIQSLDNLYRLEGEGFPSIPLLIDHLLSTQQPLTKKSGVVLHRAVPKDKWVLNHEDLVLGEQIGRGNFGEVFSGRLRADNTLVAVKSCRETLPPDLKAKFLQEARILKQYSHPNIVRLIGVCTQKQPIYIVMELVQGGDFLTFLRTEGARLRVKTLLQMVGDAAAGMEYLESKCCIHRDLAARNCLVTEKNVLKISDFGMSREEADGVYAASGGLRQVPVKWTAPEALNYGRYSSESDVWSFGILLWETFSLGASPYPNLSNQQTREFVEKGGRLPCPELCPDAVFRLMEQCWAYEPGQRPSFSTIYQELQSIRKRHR
c-SRC, sequence (P12931 whole entry): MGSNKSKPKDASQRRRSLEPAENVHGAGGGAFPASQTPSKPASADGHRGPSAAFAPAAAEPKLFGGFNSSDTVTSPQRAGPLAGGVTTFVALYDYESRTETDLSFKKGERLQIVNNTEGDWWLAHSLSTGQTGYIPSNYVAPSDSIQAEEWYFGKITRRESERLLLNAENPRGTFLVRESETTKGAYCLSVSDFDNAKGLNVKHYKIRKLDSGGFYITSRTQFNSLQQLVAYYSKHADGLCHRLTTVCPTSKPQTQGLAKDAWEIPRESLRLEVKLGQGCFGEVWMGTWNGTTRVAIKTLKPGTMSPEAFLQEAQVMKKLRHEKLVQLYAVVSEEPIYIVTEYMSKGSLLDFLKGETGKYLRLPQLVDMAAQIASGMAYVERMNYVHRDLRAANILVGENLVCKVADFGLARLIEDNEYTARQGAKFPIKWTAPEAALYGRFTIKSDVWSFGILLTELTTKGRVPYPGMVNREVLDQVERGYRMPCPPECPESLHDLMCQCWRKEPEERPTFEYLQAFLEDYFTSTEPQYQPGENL
PYK2, sequence (Q14289 whole entry): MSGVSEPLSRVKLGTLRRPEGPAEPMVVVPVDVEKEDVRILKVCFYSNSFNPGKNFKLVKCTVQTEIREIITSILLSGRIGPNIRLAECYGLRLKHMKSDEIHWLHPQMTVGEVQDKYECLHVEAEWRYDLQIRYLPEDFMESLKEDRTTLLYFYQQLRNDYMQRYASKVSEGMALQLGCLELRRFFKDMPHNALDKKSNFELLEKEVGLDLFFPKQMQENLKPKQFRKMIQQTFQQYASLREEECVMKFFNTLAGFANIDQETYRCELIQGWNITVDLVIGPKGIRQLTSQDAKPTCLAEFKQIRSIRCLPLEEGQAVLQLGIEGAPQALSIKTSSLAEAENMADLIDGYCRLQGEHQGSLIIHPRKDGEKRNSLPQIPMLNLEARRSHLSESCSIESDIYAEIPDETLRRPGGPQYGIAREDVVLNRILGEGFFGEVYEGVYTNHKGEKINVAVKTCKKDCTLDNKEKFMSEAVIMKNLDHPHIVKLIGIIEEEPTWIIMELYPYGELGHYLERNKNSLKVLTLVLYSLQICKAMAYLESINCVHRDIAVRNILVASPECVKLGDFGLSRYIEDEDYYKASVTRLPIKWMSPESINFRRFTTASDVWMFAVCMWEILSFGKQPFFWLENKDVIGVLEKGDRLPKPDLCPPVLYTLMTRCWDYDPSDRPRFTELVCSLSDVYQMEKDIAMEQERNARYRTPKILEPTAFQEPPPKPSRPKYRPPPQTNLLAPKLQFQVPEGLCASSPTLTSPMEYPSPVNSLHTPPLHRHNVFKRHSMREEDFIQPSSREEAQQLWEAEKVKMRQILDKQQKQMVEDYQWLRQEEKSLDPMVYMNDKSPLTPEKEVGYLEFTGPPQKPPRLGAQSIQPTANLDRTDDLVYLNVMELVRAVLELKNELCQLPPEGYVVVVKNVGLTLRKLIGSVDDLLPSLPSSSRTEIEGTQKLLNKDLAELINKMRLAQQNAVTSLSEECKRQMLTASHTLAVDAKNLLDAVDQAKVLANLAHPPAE

Which “expression of ALDH1 protein” value [1] does the source give for `NS(=O)(=O)c1cccc2c1C(=O)c1cccc(O)c1C2=O` [LLL12] here?
Its value is “down-regulated”.

And the IC50 [2]?
Its IC50 is no less than 77.9 µM.

And the “expression of STAT3 target genes Cyclin D1, survivin, Bcl-2 and Twist1” value [3]?
The value was “inhibited”.

And the STAT3 phosphorylation [4]?
Its STAT3 phosphorylation is “inhibited”.

What about the “body weight compared to vehicle control” value [5] of the same compound?
The value was “did not differ”.

And the tumorsphere formation [6]?
The tumorsphere formation was “suppress”.

And the IC50 [7]?
Its IC50 is greater than 100 µM.

What about the caspase-3 cleavage [8] of the same compound?
The caspase-3 cleavage was “induced caspase-3 cleavage”.

And the tumorsphere forming capacity [9]?
Its tumorsphere forming capacity is “inhibited”.

What about the “STAT1 DNA binding activity” value [10] of the same compound?
The value was “not”.

And the “effects against the ALDH− cells (cell viability)” value [11]?
Its value is “some inhibitory effects”.

What about the IC50 [12] of the same compound?
Its IC50 is no less than 77.9 µM.

What about the IC50 [13] of the same compound?
The IC50 was greater than 100 µM.

What about the IC50 [14] of the same compound?
The IC50 was no less than 77.9 µM.

And the “apoptosis (cleaved PARP and Caspase-3)” value [15]?
The value was “induced apoptosis”.

And the IC50 [16]?
Its IC50 is greater than 100 µM.

And the STAT3 phosphorylation [17]?
The STAT3 phosphorylation was “inhibited”.
